Assay results reported in patent publication US9546393B2, “Mass spectrometry quantitation of P450 isoforms in hepatocytes” (DH Technologies Development Pte. Ltd., priority 2009, dated 2017).

Experiments:
CYP 3A4 = CYP 3A4 induction in treated primary human hepatocytes (RNA assay, enzyme activity assay, LC-MSMS protein assay; FIG. 8); settings: 72 hours, 3-MC 2 μM, PB 1 mM
CYP 1A2 [1] = settings: primary human hepatocytes, 72 hours; PB 1 mM, RIF 10 μM; FIG. 7
CYP 1A2 [2] = assay: RNA assay (mRNA by qRT-PCR, Taqman) for CYP 1A2 in treated human hepatocytes; format: cell-based; settings: primary human hepatocytes, 72 hours; 3-MC 2 μM; FIG. 7
CYP 2B6 = CYP 2B6 induction in treated primary human hepatocytes (RNA assay, enzyme activity assay, LC-MSMS protein assay; FIG. 6); format: cell-based; settings: 72 hours, 3-MC 2 μM
Procedure: Flow rate was 700 μL/min.
The PB is a prototypical inducer for CYP 2B6, by CAR nuclear receptor activation.

Structure (SMILES)	changes in expression of CYP 3A4 (induction) (CYP 3A4)	changes in expression of CYP 1A2 (induction) (CYP 1A2 [1])	CYP 1A2 RNA level in RNA assay (CYP 1A2 [2])	changes in expression of CYP 2B6 (induction) (CYP 2B6)
CCC1(c2ccccc2)C(=O)NC(=O)NC1=O [PB, phenobarbital]	significantly induces	basal levels of 1A2, if any		
Cc1ccc2cc3c(ccc4ccccc43)c3c2c1CC3 [3-MC, 3-methylcholanthrene]	minimally induces		very high levels of RNA	induces basal levels
